In publication PMC7396128 (Nature medicine, 2019):

Tests used:
HIV-1IIIB [1] = experiment: ultrastructural analysis of HIV-1 virions by electron microscopy; type: cell-based; details: 500 nM
HIV-1 = details: 500 nM, 12 hpi, MOI 70
MT-4 cells = details: read-out: mean 50% cytotoxicity concentration, CC50
HIV-1IIIB [2] = type: cell-based; details: MT-4 cells
HIV-1YU2 = experiment: antiviral efficacy in HIV-1YU2-infected humanized NOG mice; type: in vivo

With `COC(=O)N[C@H](C(=O)N[C@@H](Cc1ccccc1)[C@@H](O)CN(Cc1ccc(-c2ccccn2)cc1)NC(=O)[C@@H](NC(=O)OC)C(C)(C)C)C(C)(C)C` [ATV, atazanavir] the “capsid morphology in released virions” value (HIV-1IIIB [1]) was “predominantly contained immature Gag/Gag-Pol lattices”.
In the case of `C[C@@H]1CCO[C@H]2Cn3cc(C(=O)NCc4ccc(F)cc4F)c(=O)c(O)c3C(=O)N12` [DTG, dolutegravir], the “effect on capsid and vDNA fluorescent signals” value (HIV-1) is reported as “did not alter either fluorescent signal”.
In the case of `Cc1[nH]c2ccccc2c1CC(=O)N[C@@H](Cc1ccccc1)C(=O)N(C)c1ccccc1` [PF74], the CC50 (MT-4 cells) is reported as 32.2 ± 9.3 µM, the “selectivity index (CC50/EC50 ratio)” value (HIV-1IIIB [2]) is reported as 26 and the “fold weaker antiviral potency than GS-CA1” value (HIV-1IIIB [2]; HIV-1IIIB) is reported as > 5,000 fold. It also gave an EC50 (HIV-1IIIB [2]; read-out: mean EC50, HIV-1IIIB, n = 43) of 1.24 µM.
`Cc1cc(/C=C/C#N)cc(C)c1Nc1ccnc(Nc2ccc(C#N)cc2)n1` [RPV, rilpivirine] was tested, and the capsid levels (HIV-1) was 100 % of control, the vDNA (HIV-1) was 14 % of control and the “treated animals with rapid emergence of drug resistance” value (HIV-1YU2; 160 mg/kg every 2 weeks) was 80%. The “animals returning to baseline viremia by week 10” value (HIV-1YU2; 160 mg/kg s.c. daily for 7 days then every two weeks) was 4/5.
